Biological target: Aurora B/INCENP (Homo sapiens, UniProt Q96GD4)
Assay: Determination of inhibition of AIK: Aurora B/INCENP direct fluorescence polarization (IMAP) assay
Assay type: biochemical
Conditions: 10 uM ATP, 0.8 nM Aurora B/INCENP; values given as bins; read-out: IC50 of Exemplified Compounds Against AIK B

Chain of Aurora B/INCENP (Q96GD4 whole entry): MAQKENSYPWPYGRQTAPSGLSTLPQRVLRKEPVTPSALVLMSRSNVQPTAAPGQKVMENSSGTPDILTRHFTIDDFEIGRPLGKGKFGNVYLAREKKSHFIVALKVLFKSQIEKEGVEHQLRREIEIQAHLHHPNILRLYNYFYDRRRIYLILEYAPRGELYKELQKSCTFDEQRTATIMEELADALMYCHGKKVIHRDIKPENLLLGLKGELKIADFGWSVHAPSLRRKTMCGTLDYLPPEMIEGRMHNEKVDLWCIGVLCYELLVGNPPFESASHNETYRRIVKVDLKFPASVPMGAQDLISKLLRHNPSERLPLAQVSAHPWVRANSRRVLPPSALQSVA
Chain of Aurora B/INCENP (Q9NQS7 whole entry partner): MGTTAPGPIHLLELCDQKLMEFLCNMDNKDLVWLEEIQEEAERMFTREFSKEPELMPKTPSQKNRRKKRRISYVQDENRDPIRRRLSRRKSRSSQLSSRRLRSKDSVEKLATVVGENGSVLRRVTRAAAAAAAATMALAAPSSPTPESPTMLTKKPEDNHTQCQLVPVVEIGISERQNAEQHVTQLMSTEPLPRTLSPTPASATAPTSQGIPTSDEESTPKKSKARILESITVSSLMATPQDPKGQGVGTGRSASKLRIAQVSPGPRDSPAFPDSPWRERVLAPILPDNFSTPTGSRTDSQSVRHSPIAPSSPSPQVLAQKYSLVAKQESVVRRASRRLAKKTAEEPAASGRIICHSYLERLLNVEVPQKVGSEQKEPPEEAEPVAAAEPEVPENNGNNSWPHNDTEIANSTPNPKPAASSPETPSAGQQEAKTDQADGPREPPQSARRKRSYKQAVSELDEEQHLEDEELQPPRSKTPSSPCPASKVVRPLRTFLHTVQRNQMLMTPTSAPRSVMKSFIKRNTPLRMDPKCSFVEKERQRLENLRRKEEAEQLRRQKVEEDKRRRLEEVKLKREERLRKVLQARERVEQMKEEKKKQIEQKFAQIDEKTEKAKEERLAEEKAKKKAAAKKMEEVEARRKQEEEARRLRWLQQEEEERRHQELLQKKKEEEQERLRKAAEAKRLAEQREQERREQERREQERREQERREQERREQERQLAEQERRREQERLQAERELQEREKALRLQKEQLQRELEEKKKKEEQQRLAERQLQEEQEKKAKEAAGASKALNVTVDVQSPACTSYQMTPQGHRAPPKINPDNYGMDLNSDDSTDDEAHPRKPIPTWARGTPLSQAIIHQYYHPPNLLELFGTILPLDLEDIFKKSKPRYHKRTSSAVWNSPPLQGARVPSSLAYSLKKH

Row | SMILES | IC50 [nM]
1 | CCS(=O)(=O)c1cccc(-c2ccc(OCCCN(C)CCO)c3[nH]c4ncc(C)cc4c23)c1 [Compound 305, 2-((3-(5-(3-(ethylsulfonyl)phenyl)-3-methyl-9H-pyrido[2,3-b]indol-8-yloxy)propyl)(methyl)amino)ethanol] | < 4
2 | CCS(=O)(=O)c1cccc(-c2ccc(OCCCN(C)CCOP(=O)(O)O)c3[nH]c4ncc(C)cc4c23)c1 [Compound 308, 2-((3-(5-(3-(ethylsulfonyl)phenyl)-3-methyl-9H-pyrido[2,3-b]indol-8-yloxy)propyl)(methyl)amino)ethyl dihydrogen phosphate] | < 4
3 | Cc1cnc2[nH]c3c(OC[C@@H](O)CN(C)C)ccc(-c4cccc(S(=O)(=O)C5CC5)c4)c3c2c1 [Compound 313, (S)-1-(5-(3-(cyclopropylsulfonyl)phenyl)-3-methyl-9H-pyrido[2,3-b]indol-8-yloxy)-3-(dimethylamino)propan-2-ol] | < 4
4 | Cc1cnc2[nH]c3c(OC[C@H](CN(C)C)OP(=O)(O)O)ccc(-c4cccc(S(=O)(=O)C5CC5)c4)c3c2c1 [Compound 314, (S)-1-(5-(3-(cyclopropylsulfonyl)phenyl)-3-methyl-9H-pyrido[2,3-b]indol-8-yloxy)-3-(dimethylamino)propan-2-yl dihydrogen phosphate] | 4 to 5.5
5 | Cc1cnc2[nH]c3c(OC[C@@H](CN(C)C)OP(=O)(O)O)ccc(-c4cccc(S(=O)(=O)C5CC5)c4)c3c2c1 [Compound 315, (R)-1-(5-(3-(cyclopropylsulfonyl)phenyl)-3-methyl-9H-pyrido[2,3-b]indol-8-yloxy)-3-(dimethylamino)propan-2-yl dihydrogen phosphate] | < 4
6 | Cc1cc(Nc2ccc(OCC3CCN(C)CC3)c3[nH]c4ncc(Cl)cc4c23)ccc1N1CCN(C)CC1 [Compound 316, 3-chloro-N-(3-methyl-4-(4-methylpiperazin-1-yl)phenyl)-8-((1-methylpiperidin-4-yl)methoxy)-9H-pyrido[2,3-b]indol-5-amine] | > 13
7 | CCN(CCO)CCOc1ccc(-c2cccc(S(=O)(=O)C3CC3)c2)c2c1[nH]c1ncc(C)cc12 [Compound 318, 2-((2-(5-(3-(cyclopropylsulfonyl)phenyl)-3-methyl-9H-pyrido[2,3-b]indol-8-yloxy)ethyl)(ethyl)amino)ethanol] | 8.6 to 13
8 | CN(CCO)CCOc1ccc(-c2cccc(S(=O)(=O)C3CC3)c2)c2c1[nH]c1ncc(Cl)cc12 [Compound 319, 2-((2-(3-chloro-5-(3-(cyclopropylsulfonyl)phenyl)-9H-pyrido[2,3-b]indol-8-yloxy)ethyl)(methyl)amino)ethanol] | < 4
9 | Cc1cnc2[nH]c3c(OCCN4CCC(O)CC4)ccc(-c4cccc(S(=O)(=O)C5CC5)c4)c3c2c1 [Compound 322, 1-(2-(5-(3-(cyclopropylsulfonyl)phenyl)-3-methyl-9H-pyrido[2,3-b]indol-8-yloxy)ethyl)piperidin-4-ol] | < 4
10 | CCN(CCO)CCOc1ccc(-c2cccc(S(=O)(=O)C3CC3)c2)c2c1[nH]c1ncc(Cl)cc12 [Compound 323, 2-((2-(3-chloro-5-(3-(cyclopropylsulfonyl)phenyl)-9H-pyrido[2,3-b]indol-8-yloxy)ethyl)(ethyl)amino)ethanol] | 5.6 to 8.5
11 | O=S(=O)(c1cccc(-c2ccc(OCCN3CCC(O)CC3)c3[nH]c4ncc(Cl)cc4c23)c1)C1CC1 [Compound 325, 1-(2-(3-chloro-5-(3-(cyclopropylsulfonyl)phenyl)-9H-pyrido[2,3-b]indol-8-yloxy)ethyl)piperidin-4-ol] | < 4
12 | CCS(=O)(=O)c1cccc(-c2ccc(OCCN3CCC(O)CC3)c3[nH]c4ncc(Cl)cc4c23)c1 [Compound 327, 1-(2-(3-chloro-5-(3-(ethylsulfonyl)phenyl)-9H-pyrido[2,3-b]indol-8-yloxy)ethyl)piperidin-4-ol] | 8.6 to 13
13 | CCS(=O)(=O)c1cccc(-c2ccc(OCCn3ccnc3)c3[nH]c4ncc(C)cc4c23)c1 [Compound 333, 8-(2-(1H-imidazol-1-yl)ethoxy)-5-(3-(ethylsulfonyl)phenyl)-3-methyl-9H-pyrido[2,3-b]indole] | > 13
14 | Cc1cnc2[nH]c3c(OCCCN(CCO)CC(F)(F)F)ccc(-c4cccc(S(=O)(=O)C5CC5)c4)c3c2c1 [Compound 339, 2-((3-(5-(3-(cyclopropylsulfonyl)phenyl)-3-methyl-9H-pyrido[2,3-b]indol-8-yloxy)propyl)(2,2,2-trifluoroethyl)amino)ethanol] | > 13
15 | CCS(=O)(=O)c1cccc(-c2ccc(OCCCN(CCO)CC(F)(F)F)c3[nH]c4ncc(C)cc4c23)c1 [Compound 340, 2-((3-(5-(3-(ethylsulfonyl)phenyl)-3-methyl-9H-pyrido[2,3-b]indol-8-yloxy)propyl)(2,2,2-trifluoroethyl)amino)ethanol] | > 13
16 | Cc1cnc2[nH]c3c(OCCCN(CCO)CC(F)F)ccc(-c4cccc(S(=O)(=O)C5CC5)c4)c3c2c1 [Compound 341, 2-((3-(5-(3-(cyclopropylsulfonyl)phenyl)-3-methyl-9H-pyrido[2,3-b]indol-8-yloxy)propyl)(2,2-difluoroethyl)amino)ethanol] | > 13
17 | CCS(=O)(=O)c1cccc(-c2ccc(OCCCN(CCOP(=O)(O)O)CC(F)(F)F)c3[nH]c4ncc(C)cc4c23)c1 [Compound 343, 2-((3-(5-(3-(ethylsulfonyl)phenyl)-3-methyl-9H-pyrido[2,3-b]indol-8-yloxy)propyl)(2,2,2-trifluoroethyl)amino)ethyl dihydrogen phosphate] | < 4
18 | Cc1cnc2[nH]c3c(OCC4CCN(CCO)CC4)ccc(-c4cccc(S(=O)(=O)C5CC5)c4)c3c2c1 [Compound 345, 2-(4-((5-(3-(cyclopropylsulfonyl)phenyl)-3-methyl-9H-pyrido[2,3-b]indol-8-yloxy)methyl)piperidin-1-yl)ethanol] | < 4
19 | Cc1cnc2[nH]c3c(OCC4CCN(CCOP(=O)(O)O)CC4)ccc(-c4cccc(S(=O)(=O)C5CC5)c4)c3c2c1 [Compound 346, 2-(4-((5-(3-(cyclopropylsulfonyl)phenyl)-3-methyl-9H-pyrido[2,3-b]indol-8-yloxy)methyl)piperidin-1-yl)ethyl dihydrogen phosphate] | < 4
20 | Cc1cnc2[nH]c3c(OCCCN4CCC(COP(=O)(O)O)CC4)ccc(-c4cccc(S(=O)(=O)C5CC5)c4)c3c2c1 [Compound 347, (1-(3-(5-(3-(cyclopropylsulfonyl)phenyl)-3-methyl-9H-pyrido[2,3-b]indol-8-yloxy)propyl)piperidin-4-yl)methyl dihydrogen phosphate] | < 4
21 | CCS(=O)(=O)c1cccc(-c2ccc(OCCCOP(=O)(O)O)c3[nH]c4ncc(C)cc4c23)c1 [Compound 350, 3-(5-(3-(ethylsulfonyl)phenyl)-3-methyl-9H-pyrido[2,3-b]indol-8-yloxy)propyl dihydrogen phosphate] | < 4
22 | Cc1cnc2[nH]c3c(OC[C@@H]4CNCCO4)ccc(-c4cccc(S(=O)(=O)C5CC5)c4)c3c2c1 [Compound 358, (S)-2-((5-(3-(cyclopropylsulfonyl)phenyl)-3-methyl-9H-pyrido[2,3-b]indol-8-yloxy)methyl)morpholine] | < 4
23 | Cc1cnc2[nH]c3c(OC[C@H]4CNCCO4)ccc(-c4cccc(S(=O)(=O)C5CC5)c4)c3c2c1 [Compound 359, (R)-2-((5-(3-(cyclopropylsulfonyl)phenyl)-3-methyl-9H-pyrido[2,3-b]indol-8-yloxy)methyl)morpholine] | < 4
